According to PMC9916658, “Design and Synthesis of New Quinazolin-4-one Derivatives with Negative mGlu7 Receptor Modulation Activity and Antipsychotic-Like Properties” (International Journal of Molecular Sciences, 2023):
Blank lines part the entries; values can stand above or below the compound they belong to.

Key:
[1] = target: T1, CYP3A4 (Homo sapiens, UniProt P08684); assay: CYP inhibition assay, recombinant enzyme, fluorescence; assay type: in vitro ADME; conditions: test concentrations 1.1, 3.3 and 10 μM; read-out: Cytochrome P450 3A4 IC50
T1 construct: purchased BD Biosciences
Method: CYP inhibition was performed with the recombinant enzymes CYP1A2, CYP2B6, CYP2C9, CYP2C19, CYP2D6, and CYP3A4 obtained from BD Biosciences. Compounds for CYP inhibition testing were prepared as 10 mM stock solutions in DMSO. Isoform-specific substrates were incubated at 37 °C individually with P450 enzymes (Table 5) and a range of test compound concentrations (1.1, 3.3 and 10 μM) in duplicate. Each isoform was tested separately with one reference compound, a known positive control inhibitor. […] At the end of the incubation, product formation was monitored with fluorescence detection.

[2] = target: T2, CYP2C19 (Homo sapiens, UniProt P33261); assay: as above; assay type: in vitro ADME; conditions: test concentrations 1.1, 3.3 and 10 μM; read-out: Cytochrome P450 2C19 IC50
T2 construct: purchased BD Biosciences
Method: (§1) CYP inhibition was performed with the recombinant enzymes CYP1A2, CYP2B6, CYP2C9, CYP2C19, CYP2D6, and CYP3A4 obtained from BD Biosciences. Compounds for CYP inhibition testing were prepared as 10 mM stock solutions in DMSO. Isoform-specific substrates were incubated at 37 °C individually with P450 enzymes (Table 5) and a range of test compound concentrations (1.1, 3.3 and 10 μM) in duplicate. Each isoform was tested separately with one reference compound, a known positive control inhibitor. During preincubation, the 96-well black plates were scanned with a fluorescence plate reader to eliminate false results originating from the autofluorescence of the test compounds. At the end of the incubation, product formation was monitored with fluorescence detection. A decrease in the formation of the metabolite compared to the “no inhibition” control samples was used to calculate the IC50 value.

[3] = target: T3, CYP2D6 (Homo sapiens, UniProt P10635); assay: as above; assay type: in vitro ADME; conditions: test concentrations 1.1, 3.3 and 10 μM; read-out: Cytochrome P450 2D6 IC50
T3 construct: purchased BD Biosciences
Method: as §1

[4] = target: T4, CYP1A2 (Homo sapiens, UniProt P05177); assay: as above; assay type: in vitro ADME; conditions: test concentrations 1.1, 3.3 and 10 μM; read-out: Cytochrome P450 1A2 IC50
T4 construct: purchased BD Biosciences
T4 sequence (P05177 1-516): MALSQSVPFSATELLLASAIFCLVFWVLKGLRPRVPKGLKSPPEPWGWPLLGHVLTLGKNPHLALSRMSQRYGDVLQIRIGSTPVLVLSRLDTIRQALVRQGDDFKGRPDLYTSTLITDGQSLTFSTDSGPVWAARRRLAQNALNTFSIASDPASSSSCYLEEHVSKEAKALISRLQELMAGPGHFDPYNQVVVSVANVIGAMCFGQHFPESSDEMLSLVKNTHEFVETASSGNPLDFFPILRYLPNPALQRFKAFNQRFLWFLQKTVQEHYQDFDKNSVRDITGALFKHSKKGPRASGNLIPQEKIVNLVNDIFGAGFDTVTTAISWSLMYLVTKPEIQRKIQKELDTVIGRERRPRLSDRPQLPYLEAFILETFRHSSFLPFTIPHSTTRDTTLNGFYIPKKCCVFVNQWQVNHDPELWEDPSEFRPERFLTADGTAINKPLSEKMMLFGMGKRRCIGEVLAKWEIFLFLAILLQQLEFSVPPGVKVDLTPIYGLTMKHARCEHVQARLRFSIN
Method: as §1

[5] = target: T5, recombinant human mGlu7 receptor (Homo sapiens, UniProt Q14831); assay: NAM mGlu7 activity, forskolin-induced cAMP (HTRF) in T-REx 293 cell line; assay type: cell-based; conditions: T-REx 293 cells expressing human mGlu7; 5 µM LSP4-2022 (EC80), 5 µM forskolin
T5 construct: expressed in transfected cells; host or cells: T-REx 293 (tetracycline-inducible)

[6] = system: animal models of schizophrenia; conditions: cited from earlier work
[7] = system: DOI-induced head twitches in mice; assay: DOI-induced head twitch test; assay type: in vivo
Method: The experiments were performed according to the procedure described in our previous studies. Briefly, to habituate mice to the experimental environment, each animal was transferred to a 12 cm (diameter) × 20 cm (height) glass cage lined with sawdust 30 min before treatment. Test compounds were administered intraperitoneally (i.p.) at doses of 2.5, 5, and 10 mg/kg body weight 60 min before the test was performed. The head twitch response (HTR) in mice was induced using DOI (2.5 mg/kg, i.p.). Immediately after treatment, the number of head twitches was counted during a 20 min session.

[8] = system: recognition index in mice; assay: Novel object recognition test; assay type: in vivo
Method: This procedure was adapted from and performed as described in a previous paper. Habituation, training and test trials were performed in a black plastic rectangular arena (40 × 30 × 35 cm) illuminated with a light intensity of 335 lux. During the habituation trial (2 consecutive days), each animal was allowed to explore the arena for 10 min. The next day, during the training trial (T1), mice were placed in the arena and were presented with two identical objects (red glass cylinders; 6.5 cm in diameter and 4.5 cm high) for 5 min. After 1 h, animals were placed back into the arena for a 5 min test trial, during which one of the previously presented familiar objects was replaced with a novel object (a transparent glass elongated sphere-like object with an orange cap; 5.5 cm in diameter and 8.5 cm high). Time spent exploring (i.e., sniffing or touching) the familiar (Tfamiliar) and novel (Tnovel) objects was measured by a trained observer, and the recognition index (%) was calculated for each mouse [(Tnovel − Tfamiliar)/(Tfamiliar + Tnovel)] “×” 100.

[9] = Pharmacokinetics of ALX-171 after i.v. and p.o. administration; assay type: in vivo; conditions: mouse, female BALB/c mice
[10] = system: prepulse inhibition in rats; assay: Prepulse inhibition test; assay type: in vivo
[11] = system: naïve mice; assay: Spontaneous locomotor activity of naïve mice; assay type: in vivo; conditions: compound alone
[12] = system: choice accuracy in rats; assay: Spatial delayed alternation test; assay type: in vivo

T2 sequence (P33261 whole entry): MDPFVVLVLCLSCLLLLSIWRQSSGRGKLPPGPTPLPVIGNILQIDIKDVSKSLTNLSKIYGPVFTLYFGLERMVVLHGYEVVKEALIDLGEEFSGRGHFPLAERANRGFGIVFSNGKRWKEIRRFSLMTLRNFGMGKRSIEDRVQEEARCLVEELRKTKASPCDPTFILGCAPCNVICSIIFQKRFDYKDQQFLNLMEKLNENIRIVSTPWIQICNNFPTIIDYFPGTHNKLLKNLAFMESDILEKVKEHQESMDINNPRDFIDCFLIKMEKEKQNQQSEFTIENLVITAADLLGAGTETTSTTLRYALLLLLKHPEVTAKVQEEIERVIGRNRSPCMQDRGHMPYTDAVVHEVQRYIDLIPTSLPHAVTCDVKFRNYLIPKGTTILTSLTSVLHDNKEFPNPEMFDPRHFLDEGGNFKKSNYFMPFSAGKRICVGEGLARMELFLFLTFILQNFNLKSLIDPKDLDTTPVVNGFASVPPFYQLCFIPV
T5 sequence (Q14831 35-915): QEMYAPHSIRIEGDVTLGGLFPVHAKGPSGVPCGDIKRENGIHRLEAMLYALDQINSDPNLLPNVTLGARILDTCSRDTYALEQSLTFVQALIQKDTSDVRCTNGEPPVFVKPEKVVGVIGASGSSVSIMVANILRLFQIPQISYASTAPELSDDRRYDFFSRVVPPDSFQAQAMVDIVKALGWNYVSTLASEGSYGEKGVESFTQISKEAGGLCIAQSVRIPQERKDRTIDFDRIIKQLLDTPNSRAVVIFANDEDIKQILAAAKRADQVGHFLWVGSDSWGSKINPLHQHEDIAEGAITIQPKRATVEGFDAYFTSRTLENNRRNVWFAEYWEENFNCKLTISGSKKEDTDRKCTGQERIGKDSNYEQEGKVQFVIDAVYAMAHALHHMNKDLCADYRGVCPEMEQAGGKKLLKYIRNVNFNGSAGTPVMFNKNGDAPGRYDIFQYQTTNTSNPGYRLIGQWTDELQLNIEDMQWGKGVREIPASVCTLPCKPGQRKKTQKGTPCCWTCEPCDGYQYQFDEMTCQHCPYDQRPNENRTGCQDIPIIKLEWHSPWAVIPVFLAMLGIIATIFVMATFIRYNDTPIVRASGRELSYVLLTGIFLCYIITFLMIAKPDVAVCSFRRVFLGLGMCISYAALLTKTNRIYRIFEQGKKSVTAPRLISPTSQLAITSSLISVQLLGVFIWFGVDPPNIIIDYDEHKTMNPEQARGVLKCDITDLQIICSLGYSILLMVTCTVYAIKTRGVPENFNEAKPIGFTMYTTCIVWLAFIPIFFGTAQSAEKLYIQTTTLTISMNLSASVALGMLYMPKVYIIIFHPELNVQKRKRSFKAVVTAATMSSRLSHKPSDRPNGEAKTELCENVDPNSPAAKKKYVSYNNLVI
T1 sequence (P08684 whole entry): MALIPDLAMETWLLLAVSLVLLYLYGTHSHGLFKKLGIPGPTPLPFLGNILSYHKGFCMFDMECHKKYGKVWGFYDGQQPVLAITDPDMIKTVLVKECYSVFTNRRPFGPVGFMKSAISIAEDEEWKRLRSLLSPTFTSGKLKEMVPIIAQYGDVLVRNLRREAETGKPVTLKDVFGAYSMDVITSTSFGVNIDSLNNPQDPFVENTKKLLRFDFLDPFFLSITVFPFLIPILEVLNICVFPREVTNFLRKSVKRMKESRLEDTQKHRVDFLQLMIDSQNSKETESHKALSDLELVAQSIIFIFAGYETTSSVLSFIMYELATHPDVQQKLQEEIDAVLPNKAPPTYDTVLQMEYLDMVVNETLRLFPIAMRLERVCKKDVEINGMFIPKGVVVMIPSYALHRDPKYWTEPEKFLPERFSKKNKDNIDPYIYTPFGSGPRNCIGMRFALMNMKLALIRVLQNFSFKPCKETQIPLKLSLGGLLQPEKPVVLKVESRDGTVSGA
T3 sequence (P10635 whole entry): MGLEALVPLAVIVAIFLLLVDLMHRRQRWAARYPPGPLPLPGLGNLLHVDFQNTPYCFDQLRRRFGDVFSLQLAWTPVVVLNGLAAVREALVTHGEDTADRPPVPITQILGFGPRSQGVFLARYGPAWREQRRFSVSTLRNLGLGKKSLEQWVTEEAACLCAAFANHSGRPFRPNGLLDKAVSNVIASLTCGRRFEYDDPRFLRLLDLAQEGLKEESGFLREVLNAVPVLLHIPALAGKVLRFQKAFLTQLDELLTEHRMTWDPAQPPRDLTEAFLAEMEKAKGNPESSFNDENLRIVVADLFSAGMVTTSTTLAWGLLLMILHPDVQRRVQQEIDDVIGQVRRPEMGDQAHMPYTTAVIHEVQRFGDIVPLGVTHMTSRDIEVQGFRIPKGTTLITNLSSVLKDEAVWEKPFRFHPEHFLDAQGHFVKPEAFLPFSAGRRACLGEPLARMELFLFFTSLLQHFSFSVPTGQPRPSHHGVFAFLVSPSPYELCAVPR

IC50 [1]: > 10 µM
IC50 [2]: 1.1 to 3.3 µM
IC50 [3]: > 10 µM
IC50 [4]: 1.1 to 3.3 µM
IC50 [5]: 4.65 ± 3.46 µM
Compound: Cn1c(-c2ccccc2Cl)nc2ccc(-c3ccccc3)cc2c1=O [ALX-065, 2-(2-chlorophenyl)-3-methyl-6-phenylquinazolin-4(3H)-one]

Compound: CCc1nc2c(o1)CC(c1ccc(C)cc1C)CC2=O (stereo not drawn) [ADX71743, reference compound]
DOI-induced head twitches [6]: active
MK-801-induced disruptions in social interaction [6]: active
cognitive impairment in novel object recognition [6]: active
prepulse inhibition (PPI) [6]: active
activity in animal models of schizophrenia ([6]; mGlu7 NAMs): antipsychotic activity

IC50 [1]: 3.3 to 10 µM
recognition index, compound alone (NOR) ([8]; naïve mice): no significant impact
AUC(0-t) ([9]; iv, brain, i.v. 3 mg/kg): 3.27 µM·h
Cmax ([9]; iv, brain, i.v. 3 mg/kg): 1850 nM
Tmax ([9]; iv, brain, i.v. 3 mg/kg): 0.25 h
half-life ([9]; iv, brain, i.v. 3 mg/kg): 3.41 h
AUC(0-t) ([9]; iv, plasma, i.v. 3 mg/kg): 2.91 µM·h
Cmax ([9]; iv, plasma, i.v. 3 mg/kg): 1590 nM
Tmax ([9]; iv, plasma, i.v. 3 mg/kg): 0.25 h
Vd ([9]; iv, plasma, i.v. 3 mg/kg): 7.63 L/kg
half-life ([9]; iv, plasma, i.v. 3 mg/kg): 2.26 h
bioavailability ([9]; plasma, oral, p.o. 5 mg/kg vs i.v. 3 mg/kg, read-out: F (peroral bioavailability)): 58%
AUC(0-t) ([9]; po, brain, p.o. 5 mg/kg): 2.97 µM·h
Cmax ([9]; po, brain, p.o. 5 mg/kg): 1360 nM
Tmax ([9]; po, brain, p.o. 5 mg/kg): 0.5 h
half-life ([9]; po, brain, p.o. 5 mg/kg): 2.95 h
AUC(0-t) ([9]; po, plasma, p.o. 5 mg/kg): 2.63 µM·h
Cmax ([9]; po, plasma, p.o. 5 mg/kg): 1090 nM
Tmax ([9]; po, plasma, p.o. 5 mg/kg): 0.5 h
half-life ([9]; po, plasma, p.o. 5 mg/kg): 3.08 h
IC50 [2]: 3.3 to 10 µM
IC50 [3]: > 10 µM
IC50 [4]: 3.3 to 10 µM
disturbance of the PPI response, compound alone ([10]; highest investigated dose 10 mg/kg): ~ 50%
spontaneous locomotor activity [11]: no effect
choice accuracy, compound administered alone [12]: no negative effect
IC50 [5]: 6.14 ± 3.42 µM
Compound: COc1cccc(-c2ccc3nc(-c4ccccc4Cl)n(C)c(=O)c3c2)c1OC [ALX-171, 2-(2-chlorophenyl)-6-(2,3-dimethoxyphenyl)-3-methylquinazolin-4(3H)-one]
DOI-induced head twitches in mGlu7 knockout (KO) mice ([7]; mGlu7 KO mice): had no further effect
number of DOI-induced head shakes ([7]; mice, 2.5, 5, and 10 mg/kg i.p., vs control group): significantly attenuated
MK-801-induced decrease in the recognition index (NOR) ([8]; mice, 1, 2.5, and 5 mg/kg): ameliorated
MK-801-induced decrease of prepulse inhibition ([10]; any of the investigated doses): no effect
MK-801-induced disruptions in the number of alternations ([12]; highest dose tested 5 mg/kg): reversed
